Test results reported in US9233984B2, “Compound, method for producing compound, and method for purifying compound” (Nippon Soda Co., Ltd., priority 2012, dated 2016).
Several values for one entry are separate records, joined by “and”; a condition that tells them apart may be missing. Equal entries are not always repeated.

Experiment: Isomerization reaction rate under irradiation with light (365 nm, high-pressure mercury lamp) of 1% by weight aqueous solutions
Format: physicochemical
Details: 1% by weight aqueous solution
Description: The reaction rates of the isomerization reaction were compared for the TZOX and TZOX-Na salt synthesized in Example 1. More specifically, 1% by weight aqueous solutions of each were prepared followed by irradiating these aqueous solutions with light (wavelength: 365 nm) for 3 hours using a high-pressure mercury lamp. A portion of the aqueous solutions were sampled prior to the start of irradiation with light (irradiation time: 0 hours) and at 1, 2 and 3 hours after the start of irradiation with light followed by an investigation of the abundance ratios of the (E) form and (Z) form. Although the abundance ratio of the (Z) form in the case of TZOX-Na prior to irradiation with light was only 0.33%, it increased to 34% after 1 hour had elapsed since the start of irradiation and remained essentially unchanged after that point. In other words, it was determined that the TZOX-Na salt reaches equilibrium as a result of being irradiated with light for 1 hour, and that the isomerization rate thereof is extremely fast. In contrast, in the case of TZOX, the abundance ratio of the (Z) form only finally reached 35% after 3 hours had elapsed since the start of irradiation, and it was determined that at least 2 hours are required to reach equilibrium.

[1] = irradiation time 0 hours (prior to irradiation)

Compound	Irradiation time required to reach equilibrium of (E)/(Z) isomerization	Abundance Ratio (%) (E) form [1]	Abundance Ratio (%) (Z) form [1]	Abundance Ratio (%) (E) form (irradiation time 1 hour)	Abundance Ratio (%) (Z) form (irradiation time 1 hour)	Abundance Ratio (%) (E) form (irradiation time 2 hours)	Abundance Ratio (%) (Z) form (irradiation time 2 hours)	Abundance Ratio (%) (E) form (irradiation time 3 hours)	Abundance Ratio (%) (Z) form (irradiation time 3 hours)
Cn1nnnc1C(=N[O-])c1ccccc1.[Na+] [TZOX-Na]	1 h	99.43	0.33	64.0	34	63.0	33.9	66.6	32.3%
Cn1nnnc1C(=NO)c1ccccc1 [TZOX, (1-methyl-1H-tetrazol-5-yl)(phenyl)methanoneoxime]	at least 2 hour	99.52	0.45	83.99	13.7	70.39	28.13	62.8	35% and 35.3%
